Data reported in US20110046141A1, “USE OF PDE5 INHIBITORS FOR TREATING CIRCADIAN RHYTHM DISORDERS” (CONSEJO NACIONAL DE INVESTIGACIONES CIENTIFICAS Y TECNICAS …, priority 2007, published 2011).

What was measured:
[1] = system: Syrian hamsters (Mesocricetus auratus); experiment: Light-induced phase delays of activity rhythm, light pulse at CT 14; type: in vivo; details: FIG. 3B
Procedure: (§1) (A) Effect on reentrainment of wheel-running activity rhythm following a 6-hr phase delay of the LD cycle. Double-plotted actograms of hamster wheel-running activity showing reentrainment to a 6-hr delay of the LD cycle after the injection of vehicle (top) and sildenafil (3.5 mg/kg, i.p., middle). Injections of either saline or sildenafil were given at ZT 14 on the day of the cycle change (white star). Bottom: mean±S.E.M. (n=4 animals per group) of days needed for reentrainment. (B) Effect of sildenafil on light-induced phase delays following light pulses at CT 14. Representative actograms showing vehicle (top) or sildenafil (middle) injections. Bottom graph: Mean±S.E.M. (n=4 animals per group). Animals. Male adult (3-4 month-old) Syrian hamsters (Mesocricetus auratus) were raised and maintained in a 14:10 h light-dark cycle (L:D, lights on at 0600 h), with food and water ad libitum and room temperature set at 20±2° C. All animal procedures were performed in strict accordance with NIH rules for animal care and maintenance. […] Phase shifts were calculated by fitting a line (by three observers masked to the experimental procedure) through activity onsets 5 days prior and between 5 and 15 days after light exposure and then comparing these two lines on the day of the light pulse. […]

[2] = system: rats; details: i.p.; cited from earlier work
[3] = system: Syrian hamsters (Mesocricetus auratus); experiment: Reentrainment of wheel-running activity rhythm after an abrupt 6-h advance of the LD cycle; type: in vivo; details: for time to resynchronize to the new LD cycle: saline 12±2 days; for decrease in reentrainment time: FIG. 1D
Procedure: Animals. Male adult (3-4 month-old) Syrian hamsters (Mesocricetus auratus) were raised and maintained in a 14:10 h light-dark cycle (L:D, lights on at 0600 h), with food and water ad libitum and room temperature set at 20±2° C. All animal procedures were performed in strict accordance with NIH rules for animal care and maintenance. Activity rhythm recording. For the resynchronization experiment, animals were transferred to individual cages equipped with a running wheel (17 cm. diameter) and with light intensity averaging 200 lux at cage level. Running-wheel activity was continuously recorded for each animal using a digital system that registers wheel revolutions and stored at 5-min intervals for further analysis. Animals were initially maintained under a 14:10-h is light-dark cycle (LD, lights on at 1900 h) for at least 10 days. Then, hamsters were subjected to an abrupt 6-h advance in the phase of the LD cycle. On the day of the phase shift, intraperitoneal (i.p) injection of sildenafil or vehicle was given at zeitgeber time (ZT) 18, defining ZT 12 as the time of lights off. Time for reentrainment to the new LD cycle was defined as the time it took for each animal to adjust its activity onset with the new cycle (onset at the new time of lights off±15 minutes). Daily onsets of activity were determined. Briefly, activity onset was defined as the 10 min-bin that contained at least 80 wheel revolutions, followed by another bin of at least another 80 wheel revolutions within 40 min. The effect of 1, 3.5 or 10 mg/kg sildenafil—extracted from commercial preparations according to Francis et al. (Int. J. Impotence Res. 2003 15: 369-372) was tested at ZT 14 or 18 in comparison to vehicle administration (sterile saline).

[4] = system: Syrian hamsters (Mesocricetus auratus); experiment: Reentrainment of wheel-running activity rhythm after a 6-hr phase delay of the LD cycle; type: in vivo; details: 3.5 mg/kg i.p. at ZT 14; 6-hr delay; FIG. 3A
Procedure: as §1, with “maintenance. Activity rhythm recording.” for “maintenance.”, “Running-wheel activity was continuously recorded for each animal using a digital system that registers wheel revolutions and stored at 5-min intervals for further analysis. […] Daily onsets of activity” for “Phase shifts”, “determined.” for “calculated by fitting a line (by three observers masked to the experimental procedure) through activity onsets 5 days prior and between 5 and 15 days after light exposure and then comparing these two lines on the day of the light pulse.”

[5] = system: cGMP levels in the hamster SCN; experiment: Determination of cGMP levels in the SCN by direct enzyme immunoassay; type: in vivo; details: n=4
Procedure: Determination of cGMP levels. Cyclic GMP content was determined using a direct enzyme immunoassay kit (Correlate-EIA #900-014, Assay Designs, Ann Arbor, Mich.). Hamsters received an injection of sildenafil (3.5 mg/kg, i.p.) or vehicle (sterile saline solution) at CT 18 and were sacrificed by decapitation 45-90 min later. The SCN were quickly punched out and immediately frozen in liquid nitrogen in order to avoid endogenous cGMP degradation. Tissue was grounded to a fine powder under liquid nitrogen and then homogenized in 0.1 M HCI. The overnight acetylated format of the kit was used. […] In order to precisely compare the effect of sildenafil on cGMP levels, the use of other phosphodiesterase inhibitors, e.g., IBMX, was avoided.

[6] = system: Syrian hamsters (Mesocricetus auratus); experiment: Observation of sildenafil-induced penile erections in treated hamsters; type: in vivo; details: intermediate dose 3.5 mg/kg i.p.
[7] = system: Syrian hamsters (Mesocricetus auratus); experiment: Light-induced phase advances of activity rhythm, 15-min 50 lux light pulse at CT 18 in constant dark; type: in vivo; details: for light-induced phase advance: vehicle 76±23 min
Procedure: Animals. Male adult (3-4 month-old) Syrian hamsters (Mesocricetus auratus) were raised and maintained in a 14:10 h light-dark cycle (L:D, lights on at 0600 h), with food and water ad libitum and room temperature set at 20±2° C. All animal procedures were performed in strict accordance with NIH rules for animal care and maintenance.
For light pulse experiments, hamsters were placed in constant dark (DD) conditions, and exposed to a 15-min white light pulse of 50 lux at either circadian time (CT) 14 or 18 (with CT 12 defined as the onset of wheel running activity in DD). Phase shifts were calculated by fitting a line (by three observers masked to the experimental procedure) through activity onsets 5 days prior and between 5 and 15 days after light exposure and then comparing these two lines on the day of the light pulse. […]

SMILES: CCCc1nn(C)c2c(=O)[nH]c(-c3cc(S(=O)(=O)N4CCN(C)CC4)ccc3OCC)nc12 [sildenafil, 5-[2-ethoxy-5-(4-methyl-1-piperazinylsulphonyl)phenyl]-1-methyl-3-n-propyl-1,6-dihydro-7H-pyrazolo[4,3-d]pyrimidin-7-one]
- effect on light-induced phase delays [1]: did not affect
- optimal erectogenic dose [2]: 5 mg/kg/day
- time to resynchronize to the new LD cycle ([3]; 1 mg/kg i.p. at ZT 18, p>0.05 vs. control): 9 ± 3 days
- decrease in reentrainment time ([3]; 1 mg/kg): 25%
- time to resynchronize to the new LD cycle ([3]; 3.5 mg/kg i.p. at ZT 18 on day of 6-h advance, mean±SD, six animals per group, p<0.05): 8 ± 1 days
- decrease in reentrainment time ([3]; 3.5 mg/kg): 33%
- time to resynchronize to the new LD cycle ([3]; 10 mg/kg i.p. at ZT 18, p<0.001 vs. control): 6 ± 2 days
- decrease in reentrainment time ([3]; 10 mg/kg): 50%
- effect on reentrainment rates after a delay in the LD cycle [4]: did not affect
- SCN cGMP levels ([5]; 3.5 mg/kg i.p. at CT 18, 45 minutes after injection, saline 0.37±0.20, control 0.29±0.15, mean±SD): 0.63±0.08 pmol cGMP/mg protein
- SCN cGMP levels ([5]; 90 min after injection, saline 0.26±0.16, no increase vs controls): 0.37±0.20 pmol cGMP/mg protein
- sildenafil-induced penile erections [6]: did not manifest the effects of sildenafil-induced penile erections
- light-induced phase advance ([7]; 3.5 mg/kg i.p. 45 min prior to light pulse at CT 18, mean±SD, p<0.05): 150.4 ± 64.8 min
- post-treatment circadian period ([7]; after light-induced phase advance): did not change
- light-induced phase advance ([7]; injection 90 min before light pulse at CT 18, not significantly different from controls): 123 ± 27 min
- effect on activity rhythms, drug alone ([7]; without light pulse): did not modify activity rhythms
